Experimental findings from PubChem BioAssay AID212 (DTP/NCI, 2004) are described below.

This assay has as its system BDF1 mice, colon carcinoma 38 sc, T/C %. Kind of assay: NCI In Vivo Anticancer Drug Screen. Data for tumor model Colon Carcinoma 38 (subcutaneous) in B6D2F1 (BDF1) mice. A digest of the protocol:
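Compound antitumor activity was assessed in mice carrying transplantable tumors. Survival or tumor size was recorded, and each value is the treated-group measurement divided by that of the vehicle-treated control group.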

Setting [1] is: endpoint: median tumor weight (est.), dose: 1.56 mg/kg/injection, schedule: Q07DX002 (ip), vehicle: saline, higher = larger tumour.
The mark [2] stands for this setting: endpoint: median tumor weight (est.), dose: 6.25 mg/kg/injection, schedule: Q07DX002 (ip), vehicle: saline, higher = larger tumour.
Where [3] appears, read: endpoint: median tumor weight (est.), dose: 12.5 mg/kg/injection, schedule: Q07DX002 (ip), vehicle: saline, higher = larger tumour.
Setting [4] is: endpoint: median tumor weight (est.), dose: 25.0 mg/kg/injection, schedule: Q07DX002 (ip), vehicle: saline, higher = larger tumour.
Setting [5] is: endpoint: median tumor weight (est.), dose: 50.0 mg/kg/injection, schedule: Q07DX002 (ip), vehicle: saline, higher = larger tumour.
Setting [6] is: endpoint: median tumor weight (est.), dose: 100.0 mg/kg/injection, schedule: Q07DX002 (ip), vehicle: saline, higher = larger tumour.
Where [7] appears, read: endpoint: median tumor weight (est.), dose: 200.0 mg/kg/injection, schedule: Q07DX002 (ip), vehicle: saline, higher = larger tumour.
The mark [8] stands for this setting: endpoint: median tumor weight (est.), dose: 400.0 mg/kg/injection, schedule: Q07DX002 (ip), vehicle: saline, higher = larger tumour.
[9] abbreviates: endpoint: median tumor weight (est.), dose: 25.0 mg/kg/injection, schedule: Q07DX002 (ip), vehicle: saline with Tween-80, higher = larger tumour.
The mark [10] stands for this setting: endpoint: median tumor weight (est.), dose: 50.0 mg/kg/injection, schedule: Q07DX002 (ip), vehicle: Klucel (hydroxypropylcellulose) (HPC), higher = larger tumour.
Setting [11] is: endpoint: median tumor weight (est.), dose: 400.0 mg/kg/injection, schedule: Q07DX002 (ip), vehicle: Klucel (hydroxypropylcellulose) (HPC), higher = larger tumour.
Where [12] appears, read: endpoint: median tumor weight (est.), dose: 800.0 mg/kg/injection, schedule: Q07DX002 (ip), vehicle: Klucel (hydroxypropylcellulose) (HPC), higher = larger tumour.

Molecules are shown by their SMILES. Values joined by “and” are separate entries in the source; they are usually repeats but may differ in a detail not shown here. Equal values may be shown once. Records with an inconclusive call do not appear.

As for `CCN1/C(=C/C=C/C=C\C=C\c2sc3ccc4ccccc4c3[n+]2CC)Sc2ccc3ccccc3c21`, the T/C is 105 % of control (endpoint: median tumor weight (est.), dose: 2.5 mg/kg/injection, schedule: Q07DX002 (ip), vehicle: saline with Tween-80, higher = larger tumour); 89 % of control (endpoint: median tumor weight (est.), dose: 5.0 mg/kg/injection, schedule: Q07DX002 (ip), vehicle: saline with Tween-80, higher = larger tumour); 69 % of control (endpoint: median tumor weight (est.), dose: 10.0 mg/kg/injection, schedule: Q07DX002 (ip), vehicle: saline with Tween-80, higher = larger tumour); 76 % of control (endpoint: median tumor weight (est.), dose: 20.0 mg/kg/injection, schedule: Q07DX002 (ip), vehicle: saline with Tween-80, higher = larger tumour).

As for `CCOC(=O)NC1=C(N2CC2)C(=O)C(NC(=O)OCC)=C(N2CC2)C1=O`, the T/C by setting is: (endpoint: median tumor weight (est.), dose: 0.78 mg/kg/injection, schedule: Q07DX002 (ip), vehicle: saline, higher = larger tumour) 98 % of control; (endpoint: median tumor weight (est.), dose: 0.78 mg/kg/injection, schedule: Q07DX002 (ip), vehicle: suspension in saline, higher = larger tumour) 102 % of control; under setting [1], 94 % of control; (endpoint: median tumor weight (est.), dose: 1.56 mg/kg/injection, schedule: Q07DX002 (ip), vehicle: suspension in saline, higher = larger tumour) 95 % of control; (endpoint: median tumor weight (est.), dose: 3.13 mg/kg/injection, schedule: Q07DX002 (ip), vehicle: suspension in saline, higher = larger tumour) 95 % of control; under setting [2], 77 % of control. Moreover, the T/C is 85 % of control (endpoint: median tumor weight (est.), dose: 6.25 mg/kg/injection, schedule: Q07DX002 (ip), vehicle: suspension in saline, higher = larger tumour); 69 % of control under setting [3]; 12 % of control under setting [4]; 32 % of control (endpoint: median tumor weight (est.), dose: 25.0 mg/kg/injection, schedule: Q07DX003 (ip), vehicle: saline, higher = larger tumour).

Take `C[CH2][Sn]([CH2]C)([O]S(C)(=O)=O)[O]S(C)(=O)=O`: the T/C runs as follows: under setting [1], 18 % of control; (endpoint: median tumor weight (est.), dose: 3.13 mg/kg/injection, schedule: Q07DX002 (ip), vehicle: saline, higher = larger tumour) 78 % of control; under setting [2], 108 % of control and 117 % of control and 96 % of control; under setting [4], 26 % of control.

In the case of `CNc1nc(NC)nc(NC)n1`, the T/C was 105 % of control (endpoint: median tumor weight (est.), dose: 12.5 mg/kg/injection, schedule: Q07DX003 (ip), vehicle: Klucel (hydroxypropylcellulose) (HPC), higher = larger tumour); 111 % of control (endpoint: median tumor weight (est.), dose: 50.0 mg/kg/injection, schedule: Q07DX003 (ip), vehicle: Klucel (hydroxypropylcellulose) (HPC), higher = larger tumour); 109 % of control (endpoint: median tumor weight (est.), dose: 100.0 mg/kg/injection, schedule: Q07DX003 (ip), vehicle: Klucel (hydroxypropylcellulose) (HPC), higher = larger tumour); 86 % of control (endpoint: median tumor weight (est.), dose: 200.0 mg/kg/injection, schedule: Q07DX003 (ip), vehicle: Klucel (hydroxypropylcellulose) (HPC), higher = larger tumour).

As to `O=C(O)C1CC1.[Ag]`, the T/C by setting is: (endpoint: median tumor weight (est.), dose: 6.25 mg/kg/injection, schedule: Q07DX002 (ip), vehicle: distilled water + Tween-80, higher = larger tumour) 119 % of control; (endpoint: median tumor weight (est.), dose: 6.25 mg/kg/injection, schedule: Q07DX002 (ip), vehicle: water, higher = larger tumour) 108 % of control; (endpoint: median tumor weight (est.), dose: 12.5 mg/kg/injection, schedule: Q07DX002 (ip), vehicle: water, higher = larger tumour) 84 % of control; (endpoint: median tumor weight (est.), dose: 25.0 mg/kg/injection, schedule: Q07DX002 (ip), vehicle: distilled water + Tween-80, higher = larger tumour) 87 % of control.

Regarding `CONc1ccn(C2OC(CO)C(O)C2O)c(=O)n1` (stereo unspecified), the T/C reads like this: under setting [5], 92 % of control and 101 % of control; under setting [6], 113 % of control; under setting [7], 124 % of control; under setting [8], 91 % of control.

For the compound `Cc1cc(N(CC(C)Br)CC(C)Br)ccc1N=Nc1ccccc1C(=O)O` (stereo unspecified), the T/C reads like this: (endpoint: median tumor weight (est.), dose: 1.56 mg/kg/injection, schedule: Q07DX002 (ip), vehicle: saline with Tween-80, higher = larger tumour) 87 % of control and 96 % of control; (endpoint: median tumor weight (est.), dose: 6.25 mg/kg/injection, schedule: Q07DX002 (ip), vehicle: saline with Tween-80, higher = larger tumour) 85 % of control; (endpoint: median tumor weight (est.), dose: 12.5 mg/kg/injection, schedule: Q07DX002 (ip), vehicle: saline with Tween-80, higher = larger tumour) 95 % of control and 102 % of control; under setting [9], 73 % of control and 86 % of control.

On to `Cc1nnc2ncccn12`, for which the T/C is, setting by setting: under setting [5], 84 % of control and 105 % of control; under setting [7], 113 % of control and 102 % of control; under setting [8], 81 % of control.

Regarding `CCOC(=O)c1[nH]c2cccc3c2c1CC(Br)C3=O` (stereo unspecified), the T/C was 120 % of control under setting [9]; 92 % of control (endpoint: median tumor weight (est.), dose: 50.0 mg/kg/injection, schedule: Q07DX002 (ip), vehicle: saline with Tween-80, higher = larger tumour); 90 % of control (endpoint: median tumor weight (est.), dose: 100.0 mg/kg/injection, schedule: Q07DX002 (ip), vehicle: saline with Tween-80, higher = larger tumour); 78 % of control (endpoint: median tumor weight (est.), dose: 200.0 mg/kg/injection, schedule: Q07DX002 (ip), vehicle: saline with Tween-80, higher = larger tumour).

For the compound `O=C1C=CC(n2cc(F)c(=O)[nH]c2=O)O1` (stereo unspecified), the T/C is, setting by setting: under setting [3], 113 % of control; under setting [6], 54 % of control; under setting [7], 116 % of control.

Take `NC(C/[N+]([O-])=N/O)C(=O)O` (stereo unspecified): the T/C is, setting by setting: (endpoint: median survival time, dose: 52.7 mg/kg/injection, schedule: Q04DX005 (ip), vehicle: alkali diluted with saline, higher = longer survival) 109 % of control; (endpoint: median survival time, dose: 79.0 mg/kg/injection, schedule: Q04DX005 (ip), vehicle: alkali diluted with saline, higher = longer survival) 86 % of control and 88 % of control; (endpoint: median survival time, dose: 119.0 mg/kg/injection, schedule: Q04DX005 (ip), vehicle: alkali diluted with saline, higher = longer survival) 109 % of control and 116 % of control; (endpoint: median survival time, dose: 178.0 mg/kg/injection, schedule: Q04DX005 (ip), vehicle: alkali diluted with saline, higher = longer survival) 100 % of control and 102 % of control; (endpoint: median survival time, dose: 267.0 mg/kg/injection, schedule: Q04DX005 (ip), vehicle: alkali diluted with saline, higher = longer survival) 93 % of control and 94 % of control; (endpoint: median survival time, dose: 400.0 mg/kg/injection, schedule: Q04DX005 (ip), vehicle: alkali diluted with saline, higher = longer survival) 95 % of control. For the same compound, the T/C by setting is: (endpoint: median survival time, dose: 600.0 mg/kg/injection, schedule: Q04DX005 (ip), vehicle: alkali diluted with saline, higher = longer survival) 79 % of control; (endpoint: median tumor weight (est.), dose: 32.0 mg/kg/injection, schedule: Q07DX003 (ip), vehicle: saline, higher = larger tumour) 108 % of control; (endpoint: median tumor weight (est.), dose: 64.0 mg/kg/injection, schedule: Q07DX003 (ip), vehicle: saline, higher = larger tumour) 70 % of control; (endpoint: median tumor weight (est.), dose: 128.0 mg/kg/injection, schedule: Q07DX003 (ip), vehicle: saline, higher = larger tumour) 92 % of control; (endpoint: median tumor weight (est.), dose: 256.0 mg/kg/injection, schedule: Q07DX003 (ip), vehicle: saline, higher = larger tumour) 100 % of control; (endpoint: median tumor weight (est.), dose: 512.0 mg/kg/injection, schedule: Q07DX003 (ip), vehicle: saline, higher = larger tumour) 56 % of control. Also, the T/C (endpoint: median tumor weight (est.), dose: 1024.0 mg/kg/injection, schedule: Q07DX003 (ip), vehicle: saline, higher = larger tumour) is 72 % of control.

Regarding `CSC(SC)=C1C(=O)NC(=O)NC1=O`, the T/C runs as follows: under setting [2], 85 % of control; under setting [3], 70 % of control; under setting [4], 83 % of control; under setting [5], 45 % of control.

For `Cc1cc(C)c(-c2cc(O)c(C)cc2O)c(C)c1`, the T/C is 83 % of control (endpoint: median tumor weight (est.), dose: 12.5 mg/kg/injection, schedule: Q07DX002 (ip), vehicle: Klucel (hydroxypropylcellulose) (HPC), higher = larger tumour) and 82 % of control under setting [10].

As to `N#CN=[N+]([O-])c1ccc(C(=O)O)cc1`, the T/C is, setting by setting: (endpoint: median tumor weight (est.), dose: 3.75 mg/kg/injection, schedule: Q07DX002 (ip), vehicle: Klucel (hydroxypropylcellulose) (HPC), higher = larger tumour) 117 % of control and 123 % of control; (endpoint: median tumor weight (est.), dose: 7.5 mg/kg/injection, schedule: Q07DX002 (ip), vehicle: Klucel (hydroxypropylcellulose) (HPC), higher = larger tumour) 124 % of control; (endpoint: median tumor weight (est.), dose: 15.0 mg/kg/injection, schedule: Q07DX002 (ip), vehicle: Klucel (hydroxypropylcellulose) (HPC), higher = larger tumour) 87 % of control; (endpoint: median tumor weight (est.), dose: 60.0 mg/kg/injection, schedule: Q07DX002 (ip), vehicle: Klucel (hydroxypropylcellulose) (HPC), higher = larger tumour) 159 % of control.

In the case of `COc1ccc2ccccc2c1C1NC(=O)c2ccccc2N1` (stereo unspecified), the T/C runs as follows: (endpoint: median tumor weight (est.), dose: 25.0 mg/kg/injection, schedule: Q07DX002 (ip), vehicle: Klucel (hydroxypropylcellulose) (HPC), higher = larger tumour) 76 % of control; under setting [10], 93 % of control; (endpoint: median tumor weight (est.), dose: 100.0 mg/kg/injection, schedule: Q07DX002 (ip), vehicle: Klucel (hydroxypropylcellulose) (HPC), higher = larger tumour) 59 % of control; (endpoint: median tumor weight (est.), dose: 200.0 mg/kg/injection, schedule: Q07DX002 (ip), vehicle: Klucel (hydroxypropylcellulose) (HPC), higher = larger tumour) 52 % of control; under setting [11], 69 % of control; under setting [12], 69 % of control.

For the compound `CC1=C/C(O)CC(=O)Cc2nc(co2)C(=O)N2CCC=C2C(=O)OC(C(C)C)C(C)/C=C\C(=O)NC/C=C\1` (stereo unspecified), the T/C is 109 % of control under setting [10], 102 % of control under setting [11] and 117 % of control under setting [12].
